What all share (experiment): AK assay 384-well format, Prestwick library screening
The subject of assay [1] is E. faecium. The assay is classed as cell-based, Enterococcus faecium. Conditions: for fold induction at 50 µM: Enterococcus faecium, 3 h.
Assay [2] has as its system S. aureus strain USA300-0114. It counts as cell-based, Staphylococcus aureus. Conditions: for fold induction at 50 µM: Staphylococcus aureus, USA300, 3 h.
Assay [3] concerns K. pneumoniae. It counts as cell-based, Klebsiella pneumoniae. Particulars: for fold induction at 50 µM: Klebsiella pneumoniae, 3 h.
Assay [4] concerns A. baumannii strain 98-37-09. It counts as cell-based, Acinetobacter baumannii. Particulars: for fold induction at 50 µM: Acinetobacter baumannii, 983709, 3 h.
Assay [5] has as its system P. aeruginosa. It counts as cell-based, Pseudomonas aeruginosa. Conditions: for fold induction at 50 µM: Pseudomonas aeruginosa, 3 h.
Assay [6] deals with E. cloacae. It counts as cell-based, Enterobacter cloacae. Particulars: for fold induction at 50 µM: Enterobacter cloacae, 3 h.
Assay [7] has as its system E. coli. It counts as cell-based, Escherichia coli. Particulars: for fold induction at 50 µM: Escherichia coli, 3 h.
The mark [8] stands for this setting: 50 μM final drug concentration, planktonic, cutoff for positive 3-fold increase.
Where [9] appears, read: 50 μM final drug concentration, planktonic, cutoff for positive 3-fold increase, read-out: AK-based Prestwick Library Screening Results, E. faecium (fold increase in extracellular AK activity).
Where [10] appears, read: 50 μM final drug concentration, planktonic, cutoff for positive 3-fold increase, read-out: AK-based Prestwick Library Screening Results, S. aureus (fold increase in extracellular AK activity).
The mark [11] stands for this setting: 50 μM final drug concentration, planktonic, cutoff for positive 3-fold increase, read-out: AK-based Prestwick Library Screening Results, K. pneumoniae (fold increase in extracellular AK activity).
[12] abbreviates: 50 μM final drug concentration, planktonic, cutoff for positive 3-fold increase, read-out: AK-based Prestwick Library Screening Results, A. baumannii (fold increase in extracellular AK activity).
[13] abbreviates: 50 μM final drug concentration, planktonic, cutoff for positive 3-fold increase, read-out: AK-based Prestwick Library Screening Results, P. aeruginosa (fold increase in extracellular AK activity).
Where [14] appears, read: 50 μM final drug concentration, planktonic, cutoff for positive 3-fold increase, read-out: AK-based Prestwick Library Screening Results, E. cloacae (fold increase in extracellular AK activity).
Where [15] appears, read: 50 μM final drug concentration, planktonic, cutoff for positive 3-fold increase, read-out: AK-based Prestwick Library Screening Results, E. coli (fold increase in extracellular AK activity).

Counter-ions that a name gives are not always drawn. Like-named read-outs stand apart in the source and are kept apart here.

In the case of `CC[C@H](C)C(=O)O[C@H]1C[C@@H](C)C=C2C=C[C@H](C)[C@H](CC[C@@H]3C[C@@H](O)CC(=O)O3)[C@H]21` [Lovastatin], the fold induction at 50 µM in assay [1] (planktonic E. faecium, 50 μM final drug concentration, cutoff for positive-scoring molecules 3-fold increase, read-out: AK-based Prestwick Library Screening Results, E. faecium (increase in extracellular AK activity)) came out at 1; in assay [2] (planktonic S. aureus, 50 μM final drug concentration, cutoff for positive-scoring molecules 3-fold increase, read-out: AK-based Prestwick Library Screening Results, S. aureus (increase in extracellular AK activity)), 0.3; in assay [3] (planktonic K. pneumoniae, 50 μM final drug concentration, cutoff for positive-scoring molecules 3-fold increase, read-out: AK-based Prestwick Library Screening Results, K. pneumoniae (increase in extracellular AK activity)) it was 0.8; in assay [4] (planktonic A. baumannii, 50 μM final drug concentration, cutoff for positive-scoring molecules 3-fold increase, read-out: AK-based Prestwick Library Screening Results, A. baumannii (increase in extracellular AK activity)), 1; in assay [5] (planktonic P. aeruginosa, 50 μM final drug concentration, cutoff for positive-scoring molecules 3-fold increase, read-out: AK-based Prestwick Library Screening Results, P. aeruginosa (increase in extracellular AK activity)) it was 0.8; in assay [6] (planktonic E. cloacae, 50 μM final drug concentration, cutoff for positive-scoring molecules 3-fold increase, read-out: AK-based Prestwick Library Screening Results, E. cloacae (increase in extracellular AK activity)) it was 1.2. Further, in assay [7] (planktonic E. coli, 50 μM final drug concentration, cutoff for positive-scoring molecules 3-fold increase, read-out: AK-based Prestwick Library Screening Results, E. coli (increase in extracellular AK activity)), the fold induction at 50 µM stood at 1.

Regarding `COc1cc2c(cc1OC)C(C)NCC2.Cl` (stereo not shown), in assay [1] (setting [8]), the “AK-based Prestwick Library Screening Results, E. faecium (fold increase in extracellular AK activity)” value is 0.9. In addition, the “AK-based Prestwick Library Screening Results, S. aureus (fold increase in extracellular AK activity)” value in assay [2] (setting [8]) is on record as 1.0. For the same molecule, in assay [3] (setting [8]), the “AK-based Prestwick Library Screening Results, K. pneumoniae (fold increase in extracellular AK activity)” value came to 1.0. Besides, in assay [4] (setting [8]), the “AK-based Prestwick Library Screening Results, A. baumannii (fold increase in extracellular AK activity)” value came to 1.0. Further, in assay [5] (setting [8]), the “AK-based Prestwick Library Screening Results, P. aeruginosa (fold increase in extracellular AK activity)” value turned out to be 1.2. Further, in assay [6] (setting [8]), the “AK-based Prestwick Library Screening Results, E. cloacae (fold increase in extracellular AK activity)” value turned out to be 1.5. Besides, in assay [7] (50 μM final drug concentration, planktonic, […]), the “AK-based Prestwick Library Screening Results, E. coli (fold increase in extracellular AK activity)” value was found to be 1.3.

For the molecule `CN(Cc1cnc2nc(N)nc(N)c2n1)c1ccc(C(=O)N[C@@H](CCC(=O)O)C(=O)O)cc1` [Methotrexate], the fold induction at 50 µM in assay [1] (planktonic E. faecium, 50 μM final drug concentration, 384-well, cutoff for positive-scoring molecules 3-fold increase, read-out: AK-based Prestwick Library Screening Results: E. faecium (increase in extracellular AK activity)) stood at 0.8; in assay [2] (planktonic S. aureus, 50 μM final drug concentration, 384-well, cutoff for positive-scoring molecules 3-fold increase, read-out: AK-based Prestwick Library Screening Results: S. aureus (increase in extracellular AK activity)) it was 0.9; in assay [3] (planktonic K. pneumoniae, 50 μM final drug concentration, 384-well, cutoff for positive-scoring molecules 3-fold increase, read-out: AK-based Prestwick Library Screening Results: K. pneumoniae (increase in extracellular AK activity)), 0.8; in assay [4] (planktonic A. baumannii, 50 μM final drug concentration, 384-well, cutoff for positive-scoring molecules 3-fold increase, read-out: AK-based Prestwick Library Screening Results: A. baumannii (increase in extracellular AK activity)) it was 1; in assay [5] (planktonic P. aeruginosa, 50 μM final drug concentration, 384-well, cutoff for positive-scoring molecules 3-fold increase, read-out: AK-based Prestwick Library Screening Results: P. aeruginosa (increase in extracellular AK activity)), 1; in assay [6] (planktonic E. cloacae, 50 μM final drug concentration, 384-well, cutoff for positive-scoring molecules 3-fold increase, read-out: AK-based Prestwick Library Screening Results: E. cloacae (increase in extracellular AK activity)), 1.3. In addition, the fold induction at 50 µM in assay [7] (planktonic E. coli, 50 μM final drug concentration, 384-well, […], read-out: AK-based Prestwick Library Screening Results: E. coli (increase in extracellular AK activity)) amounted to 1.1.

`OC(c1ccccc1)(c1ccccc1)C1CCNCC1` [Azacyclonol]: the fold induction at 50 µM was determined as 0.9 in assay [1] (50 μM final drug concentration, 384-well format, […], read-out: AK-based Prestwick Library Screening Results, E. faecium (increase in extracellular AK activity)); 0.7 in assay [2] (50 μM final drug concentration, 384-well format, […], read-out: AK-based Prestwick Library Screening Results, S. aureus (increase in extracellular AK activity)); 0.6 in assay [3] (50 μM final drug concentration, 384-well format, […], read-out: AK-based Prestwick Library Screening Results, K. pneumoniae (increase in extracellular AK activity)); 0.6 in assay [4] (50 μM final drug concentration, 384-well format, […], read-out: AK-based Prestwick Library Screening Results, A. baumannii (increase in extracellular AK activity)); 0.6 in assay [5] (50 μM final drug concentration, 384-well format, […], read-out: AK-based Prestwick Library Screening Results, P. aeruginosa (increase in extracellular AK activity)); 0.9 in assay [6] (50 μM final drug concentration, 384-well format, […], read-out: AK-based Prestwick Library Screening Results, E. cloacae (increase in extracellular AK activity)). In addition, the fold induction at 50 µM in assay [7] (50 μM final drug concentration, 384-well format, […], read-out: AK-based Prestwick Library Screening Results, E. coli (increase in extracellular AK activity)) was 0.6.

As for `c1ccc(C2CN3CCSC3=N2)cc1` (stereo not shown) [Tetramisole hydrochloride], the fold induction at 50 µM came to 1 in assay [1] (setting [9]); 1.1 in assay [2] (setting [10]); 1.1 in assay [3] (setting [11]); 1.4 in assay [4] (setting [12]); 1.2 in assay [5] (setting [13]); 1.4 in assay [6] (setting [14]). The fold induction at 50 µM in assay [7] (setting [15]) worked out at 1.3.

Turning to `CO[C@H]1/C=C/O[C@@]2(C)Oc3c(C)c(O)c4c(O)c(c(/C=N/N5CCN(C)CC5)c(O)c4c3C2=O)NC(=O)/C(C)=C\C=C\[C@H](C)[C@H](O)[C@@H](C)[C@@H](O)[C@@H](C)[C@H](OC(C)=O)[C@@H]1C` [Rifampicin], the fold induction at 50 µM in assay [1] (setting [9]) turned out to be 0.8; in assay [2] (setting [10]) it was 0.8; in assay [3] (setting [11]), 0.7; in assay [4] (setting [12]) it was 3; in assay [5] (setting [13]), 0.6; in assay [6] (setting [14]), 1.4. Further, the fold induction at 50 µM in assay [7] (setting [15]) worked out at 1.3.

`Cc1c(Cl)cccc1Nc1ncccc1C(=O)O.NCCCC[C@H](N)C(=O)O` [Clonixin Lysinate]: in assay [1], the “AK-based Prestwick library screening result, E. faecium (fold increase in extracellular AK activity)” value is 0.9. Also, the “AK-based Prestwick library screening result, S. aureus (fold increase in extracellular AK activity)” value in assay [2] is 1.2. Besides, the “AK-based Prestwick library screening result, K. pneumoniae (fold increase in extracellular AK activity)” value in assay [3] is given as 1.1. Moreover, in assay [4], the “AK-based Prestwick library screening result, A. baumannii (fold increase in extracellular AK activity)” value came out at 1.4. Also, the “AK-based Prestwick library screening result, P. aeruginosa (fold increase in extracellular AK activity)” value in assay [5] is on record as 1.0. For the same molecule, the “AK-based Prestwick library screening result, E. cloacae (fold increase in extracellular AK activity)” value in assay [6] stood at 1.5. In assay [7], the “AK-based Prestwick library screening result, E. coli (fold increase in extracellular AK activity)” value came to 1.0.

The values above are taken from patent publication US10004701B2, “Methods and compositions for treating infection” (UNIVERSITY OF ROCHESTER, priority 2012, dated 2018).
